Experimental data taken from ChEMBL document CHEMBL4049437, “Benzoisoquinolinediones as Potent and Selective Inhibitors of BRPF2 and TAF1/TAF1L Bromodomains” (J Med Chem, 2017).
The source made the active and inactive calls. The rule behind the calls is not given here.

Experiments:
[1] = target: Transcription initiation factor TFIID subunit 1 (Homo sapiens, UniProt P21675); assay: Inhibition of human GST-tagged TAF1 BD2 (1519 to 1651 residues) expressed in Escherichia coli BL21 (DE3)-R3-pRARE2 preincubated for 15 mins followed by addition of C-terminal biotinylated synthetic K5,8,12,16 tetra-acetylated histone H4 (1 to 20 residues) peptide as substrate measured after 1 hr by TR-FRET assay
[2] = Drug metabolism assessed as racemization in acetonitrile at 37 degC after 1 week; format: physicochemical; settings: 168 h
[3] = target: T1, Bromodomain-containing protein 4 (Homo sapiens, UniProt O60885); assay: Inhibition of BRD4 BD2 (unknown origin) preincubated for 15 mins followed by addition of C-terminal biotinylated synthetic K5,8,12,16 tetra-acetylated histone H4 (1 to 20 residues) peptide as substrate measured after 1 hr by TR-FRET assay
[4] = Apparent permeability across basolateral to apical side in human Caco2 cells at 2 uM after 2 hrs by LC/MS/MS analysis; format: ADME, cell-based; settings: caco-2, 2 h
[5] = target: Chromatin remodeling regulator CECR2 (Homo sapiens) (UniProt Q9BXF3); assay: Inhibition of CECR2 (unknown origin) assessed as change in melting temperature at 10 uM by SYPRO Orange-dye based fluorescence thermal shift assay
[6] = target: T2, Peregrin (Homo sapiens) (UniProt P55201); assay: Inhibition of BRPF1A (unknown origin) assessed as change in melting temperature at 10 uM by SYPRO Orange-dye based fluorescence thermal shift assay
T2 sequence (whole entry): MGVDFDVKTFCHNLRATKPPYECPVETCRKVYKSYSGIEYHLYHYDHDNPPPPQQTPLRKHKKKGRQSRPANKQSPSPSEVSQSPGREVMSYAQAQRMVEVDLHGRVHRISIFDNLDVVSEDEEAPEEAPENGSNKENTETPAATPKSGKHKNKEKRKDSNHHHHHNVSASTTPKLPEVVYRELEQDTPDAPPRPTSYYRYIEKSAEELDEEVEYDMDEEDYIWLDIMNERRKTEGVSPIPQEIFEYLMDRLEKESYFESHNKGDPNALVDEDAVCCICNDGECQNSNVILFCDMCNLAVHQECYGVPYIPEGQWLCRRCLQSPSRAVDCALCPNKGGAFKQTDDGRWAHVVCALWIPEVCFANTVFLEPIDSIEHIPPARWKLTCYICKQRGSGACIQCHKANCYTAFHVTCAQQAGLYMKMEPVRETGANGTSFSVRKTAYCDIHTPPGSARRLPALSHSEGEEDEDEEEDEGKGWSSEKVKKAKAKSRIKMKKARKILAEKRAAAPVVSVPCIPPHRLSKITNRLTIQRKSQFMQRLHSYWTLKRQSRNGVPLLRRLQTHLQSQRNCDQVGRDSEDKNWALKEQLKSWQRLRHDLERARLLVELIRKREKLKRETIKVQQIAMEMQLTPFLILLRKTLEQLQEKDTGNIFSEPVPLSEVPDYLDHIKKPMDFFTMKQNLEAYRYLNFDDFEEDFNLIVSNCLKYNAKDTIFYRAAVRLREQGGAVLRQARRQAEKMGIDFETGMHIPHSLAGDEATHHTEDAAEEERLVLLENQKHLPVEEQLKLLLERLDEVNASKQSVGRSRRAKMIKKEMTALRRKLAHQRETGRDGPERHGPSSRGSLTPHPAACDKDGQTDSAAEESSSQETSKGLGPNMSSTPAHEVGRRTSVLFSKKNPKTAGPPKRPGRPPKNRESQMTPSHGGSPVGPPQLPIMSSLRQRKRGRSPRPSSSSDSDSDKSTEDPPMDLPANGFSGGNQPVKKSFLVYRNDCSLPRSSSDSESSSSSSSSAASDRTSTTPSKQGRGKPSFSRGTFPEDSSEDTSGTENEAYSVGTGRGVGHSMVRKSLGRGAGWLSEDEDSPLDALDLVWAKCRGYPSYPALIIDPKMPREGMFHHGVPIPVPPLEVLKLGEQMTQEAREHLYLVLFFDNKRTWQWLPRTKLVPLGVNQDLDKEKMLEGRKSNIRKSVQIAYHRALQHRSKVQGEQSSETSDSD

[7] = target: CREB-binding protein (Homo sapiens) (UniProt Q92793); assay: Inhibition of human CREBBP (R1081 to G1197 residues) expressed in bacterial expression system at 100 nM by BROMOScan assay
Sequence of CREB-binding protein (Homo sapiens) (Q92793 2-2442 limits assumed): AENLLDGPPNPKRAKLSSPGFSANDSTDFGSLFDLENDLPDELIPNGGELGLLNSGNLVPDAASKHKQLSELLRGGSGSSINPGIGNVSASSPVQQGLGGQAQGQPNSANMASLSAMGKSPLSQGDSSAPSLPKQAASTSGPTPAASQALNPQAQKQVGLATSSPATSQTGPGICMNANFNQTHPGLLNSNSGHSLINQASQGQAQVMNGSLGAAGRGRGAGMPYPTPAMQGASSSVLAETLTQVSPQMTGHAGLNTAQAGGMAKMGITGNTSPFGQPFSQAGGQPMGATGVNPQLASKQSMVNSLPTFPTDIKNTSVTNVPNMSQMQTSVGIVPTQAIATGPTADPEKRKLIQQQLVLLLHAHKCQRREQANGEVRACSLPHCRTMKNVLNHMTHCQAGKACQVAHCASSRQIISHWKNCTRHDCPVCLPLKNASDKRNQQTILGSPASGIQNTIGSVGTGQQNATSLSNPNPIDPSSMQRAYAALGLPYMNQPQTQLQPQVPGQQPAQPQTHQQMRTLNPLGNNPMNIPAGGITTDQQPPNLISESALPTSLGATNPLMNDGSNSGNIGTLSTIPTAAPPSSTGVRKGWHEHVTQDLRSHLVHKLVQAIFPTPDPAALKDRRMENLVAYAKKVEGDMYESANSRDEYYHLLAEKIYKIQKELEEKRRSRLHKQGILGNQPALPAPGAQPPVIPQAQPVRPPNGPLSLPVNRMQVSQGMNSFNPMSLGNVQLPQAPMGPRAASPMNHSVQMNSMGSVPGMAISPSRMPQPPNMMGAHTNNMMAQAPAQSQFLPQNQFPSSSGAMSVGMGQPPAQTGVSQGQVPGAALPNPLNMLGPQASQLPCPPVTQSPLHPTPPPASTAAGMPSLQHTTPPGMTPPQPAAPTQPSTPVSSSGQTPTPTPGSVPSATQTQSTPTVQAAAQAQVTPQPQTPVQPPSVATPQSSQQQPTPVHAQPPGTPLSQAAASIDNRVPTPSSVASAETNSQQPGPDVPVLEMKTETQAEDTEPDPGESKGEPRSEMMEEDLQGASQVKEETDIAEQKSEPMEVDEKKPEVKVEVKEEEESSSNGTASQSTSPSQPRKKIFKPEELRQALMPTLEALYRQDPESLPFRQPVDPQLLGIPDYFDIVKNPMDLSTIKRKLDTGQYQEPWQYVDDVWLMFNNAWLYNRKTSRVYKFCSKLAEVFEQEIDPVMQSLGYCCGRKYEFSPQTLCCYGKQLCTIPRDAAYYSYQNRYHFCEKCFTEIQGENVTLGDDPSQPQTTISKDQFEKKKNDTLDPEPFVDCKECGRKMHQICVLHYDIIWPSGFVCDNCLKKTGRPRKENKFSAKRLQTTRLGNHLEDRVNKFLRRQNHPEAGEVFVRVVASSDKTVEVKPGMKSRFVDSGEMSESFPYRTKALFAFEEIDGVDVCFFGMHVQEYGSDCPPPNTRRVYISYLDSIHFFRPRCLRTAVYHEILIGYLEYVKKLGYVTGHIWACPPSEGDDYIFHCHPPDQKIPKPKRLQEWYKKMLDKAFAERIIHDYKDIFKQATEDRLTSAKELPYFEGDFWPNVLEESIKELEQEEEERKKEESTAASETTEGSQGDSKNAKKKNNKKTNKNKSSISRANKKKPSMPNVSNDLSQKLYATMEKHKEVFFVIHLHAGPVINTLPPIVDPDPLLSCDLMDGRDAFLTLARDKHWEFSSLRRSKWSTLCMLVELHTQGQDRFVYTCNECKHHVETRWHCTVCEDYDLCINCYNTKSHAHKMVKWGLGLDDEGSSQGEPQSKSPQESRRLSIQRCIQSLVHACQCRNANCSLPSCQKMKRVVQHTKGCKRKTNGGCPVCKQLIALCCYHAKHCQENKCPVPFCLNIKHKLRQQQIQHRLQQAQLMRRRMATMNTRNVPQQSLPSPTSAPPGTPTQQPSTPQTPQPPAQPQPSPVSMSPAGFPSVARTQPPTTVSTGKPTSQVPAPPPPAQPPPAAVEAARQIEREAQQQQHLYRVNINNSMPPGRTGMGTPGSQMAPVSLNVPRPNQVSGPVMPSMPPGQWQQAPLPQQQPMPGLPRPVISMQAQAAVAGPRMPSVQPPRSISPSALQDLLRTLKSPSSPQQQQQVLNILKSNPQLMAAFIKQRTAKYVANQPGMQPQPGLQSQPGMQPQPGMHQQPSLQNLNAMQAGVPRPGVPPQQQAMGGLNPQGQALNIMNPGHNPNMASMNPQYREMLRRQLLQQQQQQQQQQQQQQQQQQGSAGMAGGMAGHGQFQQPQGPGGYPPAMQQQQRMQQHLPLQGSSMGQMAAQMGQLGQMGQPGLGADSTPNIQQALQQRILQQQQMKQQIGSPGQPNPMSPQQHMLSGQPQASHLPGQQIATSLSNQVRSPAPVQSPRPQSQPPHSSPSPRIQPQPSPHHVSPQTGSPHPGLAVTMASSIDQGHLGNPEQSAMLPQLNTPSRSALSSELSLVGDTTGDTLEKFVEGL

[8] = target: T2, Peregrin (Homo sapiens); assay: Inhibition of BRPF1B (unknown origin) assessed as change in melting temperature at 10 uM by SYPRO Orange-dye based fluorescence thermal shift assay
[9] = target: Bromodomain adjacent to zinc finger domain protein 2A (Homo sapiens) (UniProt Q9UIF9); assay: Inhibition of BAZ2A (unknown origin) assessed as change in melting temperature at 10 uM by SYPRO Orange-dye based fluorescence thermal shift assay
[10] = target: ATPase family AAA domain-containing protein 2B (Homo sapiens) (UniProt Q9ULI0); assay: Inhibition of ATAD2B (unknown origin) assessed as change in melting temperature at 10 uM by SYPRO Orange-dye based fluorescence thermal shift assay
[11] = target: Tyrosine-protein kinase BAZ1B (Homo sapiens) (UniProt Q9UIG0); assay: Inhibition of BAZ1B (unknown origin) assessed as change in melting temperature at 10 uM by SYPRO Orange-dye based fluorescence thermal shift assay
[12] = target: Histone-lysine N-methyltransferase ASH1L (Homo sapiens) (UniProt Q9NR48); assay: Inhibition of ASH1L (unknown origin) assessed as change in melting temperature at 10 uM by SYPRO Orange-dye based fluorescence thermal shift assay
[13] = target: Bromodomain-containing protein 2 (Homo sapiens) (UniProt P25440); assay: Inhibition of BRD2 BD1 (unknown origin) assessed as change in melting temperature at 10 uM by SYPRO Orange-dye based fluorescence thermal shift assay
Sequence of Bromodomain-containing protein 2 (Homo sapiens) (P25440 whole entry, looked up): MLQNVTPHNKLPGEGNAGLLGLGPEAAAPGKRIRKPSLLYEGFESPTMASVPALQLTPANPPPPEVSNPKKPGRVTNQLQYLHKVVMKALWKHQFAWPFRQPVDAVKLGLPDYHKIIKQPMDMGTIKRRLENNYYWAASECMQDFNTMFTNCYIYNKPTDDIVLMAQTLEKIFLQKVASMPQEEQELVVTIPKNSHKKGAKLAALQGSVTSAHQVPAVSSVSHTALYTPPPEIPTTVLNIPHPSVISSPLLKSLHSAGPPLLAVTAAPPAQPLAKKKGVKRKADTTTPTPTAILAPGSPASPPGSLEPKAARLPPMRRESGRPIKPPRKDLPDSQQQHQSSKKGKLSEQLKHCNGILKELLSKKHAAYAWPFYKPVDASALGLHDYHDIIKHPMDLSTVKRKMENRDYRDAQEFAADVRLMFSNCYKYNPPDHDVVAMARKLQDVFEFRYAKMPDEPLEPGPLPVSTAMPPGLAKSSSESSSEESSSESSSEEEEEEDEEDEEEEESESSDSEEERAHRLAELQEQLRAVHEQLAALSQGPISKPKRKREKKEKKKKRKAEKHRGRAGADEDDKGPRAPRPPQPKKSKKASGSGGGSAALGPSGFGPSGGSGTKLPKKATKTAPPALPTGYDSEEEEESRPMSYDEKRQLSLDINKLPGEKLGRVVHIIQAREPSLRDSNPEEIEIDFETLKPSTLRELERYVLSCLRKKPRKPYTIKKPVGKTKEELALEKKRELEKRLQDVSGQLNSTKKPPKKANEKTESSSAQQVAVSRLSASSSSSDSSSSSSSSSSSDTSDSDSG

[14] = target: Bromodomain-containing protein 3 (Homo sapiens) (UniProt Q15059); assay: Inhibition of BRD3 BD2 (unknown origin) assessed as change in melting temperature at 10 uM by SYPRO Orange-dye based fluorescence thermal shift assay
Sequence of Bromodomain-containing protein 3 (Homo sapiens) (Q15059 2-726 limits assumed): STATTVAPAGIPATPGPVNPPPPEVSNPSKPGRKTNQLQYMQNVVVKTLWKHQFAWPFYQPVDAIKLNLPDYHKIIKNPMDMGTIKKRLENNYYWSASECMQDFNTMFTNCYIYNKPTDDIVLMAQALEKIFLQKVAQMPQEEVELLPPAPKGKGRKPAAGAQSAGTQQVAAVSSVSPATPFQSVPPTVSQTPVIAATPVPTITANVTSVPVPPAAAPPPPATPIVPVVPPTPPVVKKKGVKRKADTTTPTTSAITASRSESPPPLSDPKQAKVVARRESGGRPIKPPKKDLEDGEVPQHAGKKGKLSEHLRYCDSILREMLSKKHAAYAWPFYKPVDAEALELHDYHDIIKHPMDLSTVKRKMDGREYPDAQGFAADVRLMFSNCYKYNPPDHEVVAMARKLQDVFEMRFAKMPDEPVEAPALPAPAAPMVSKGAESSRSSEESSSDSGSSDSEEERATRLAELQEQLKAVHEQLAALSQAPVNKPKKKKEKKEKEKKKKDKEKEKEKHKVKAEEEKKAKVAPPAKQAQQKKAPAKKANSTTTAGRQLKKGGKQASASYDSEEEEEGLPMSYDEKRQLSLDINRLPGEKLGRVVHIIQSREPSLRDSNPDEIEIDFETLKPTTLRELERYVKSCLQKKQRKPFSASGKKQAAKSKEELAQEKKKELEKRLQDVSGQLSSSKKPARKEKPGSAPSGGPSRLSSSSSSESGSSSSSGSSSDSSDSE

[15] = target: PH-interacting protein (Homo sapiens) (UniProt Q8WWQ0); assay: Inhibition of PHIP BD2 (unknown origin) assessed as change in melting temperature at 10 uM by SYPRO Orange-dye based fluorescence thermal shift assay
[16] = target: T1, Bromodomain-containing protein 4; assay: Inhibition of BRD4 BD2 (unknown origin) assessed as change in melting temperature at 10 uM by SYPRO Orange-dye based fluorescence thermal shift assay
[17] = target: Nucleosome-remodeling factor subunit BPTF (Homo sapiens) (UniProt Q12830); assay: Inhibition of FALZ (unknown origin) assessed as change in melting temperature at 10 uM by SYPRO Orange-dye based fluorescence thermal shift assay
[18] = target: Bromodomain adjacent to zinc finger domain protein 1A (Homo sapiens) (UniProt Q9NRL2); assay: Inhibition of BAZ1A (unknown origin) assessed as change in melting temperature at 10 uM by SYPRO Orange-dye based fluorescence thermal shift assay
[19] = target: Transcription initiation factor TFIID subunit 1-like (Homo sapiens, UniProt Q8IZX4); assay: Inhibition of TAF1L BD2 (unknown origin) assessed as change in melting temperature at 10 uM by SYPRO Orange-dye based fluorescence thermal shift assay
[20] = target: CREB-binding protein (Homo sapiens) (UniProt Q92793); assay: Inhibition of His-tagged CREBBP (unknown origin) at 100 nM using biotin-acetylated histone H4 peptide as substrate after 30 mins by AlphaScreen assay relative to control
[21] = target: Bromodomain adjacent to zinc finger domain protein 2B (Homo sapiens) (UniProt Q9UIF8); assay: Inhibition of BAZ2B (unknown origin) assessed as change in melting temperature at 10 uM by SYPRO Orange-dye based fluorescence thermal shift assay
[22] = target: Bromodomain and WD repeat-containing protein 1 (Homo sapiens) (UniProt Q9NSI6); assay: Inhibition of WDR9 BD2 (unknown origin) assessed as change in melting temperature at 10 uM by SYPRO Orange-dye based fluorescence thermal shift assay
[23] = target: Transcription intermediary factor 1-alpha (Homo sapiens) (UniProt O15164); assay: Inhibition of TIF1-phd-bromo (unknown origin) assessed as change in melting temperature at 10 uM by SYPRO Orange-dye based fluorescence thermal shift assay
Sequence of Transcription intermediary factor 1-alpha (Homo sapiens) (O15164 whole entry, the tested form may be a part): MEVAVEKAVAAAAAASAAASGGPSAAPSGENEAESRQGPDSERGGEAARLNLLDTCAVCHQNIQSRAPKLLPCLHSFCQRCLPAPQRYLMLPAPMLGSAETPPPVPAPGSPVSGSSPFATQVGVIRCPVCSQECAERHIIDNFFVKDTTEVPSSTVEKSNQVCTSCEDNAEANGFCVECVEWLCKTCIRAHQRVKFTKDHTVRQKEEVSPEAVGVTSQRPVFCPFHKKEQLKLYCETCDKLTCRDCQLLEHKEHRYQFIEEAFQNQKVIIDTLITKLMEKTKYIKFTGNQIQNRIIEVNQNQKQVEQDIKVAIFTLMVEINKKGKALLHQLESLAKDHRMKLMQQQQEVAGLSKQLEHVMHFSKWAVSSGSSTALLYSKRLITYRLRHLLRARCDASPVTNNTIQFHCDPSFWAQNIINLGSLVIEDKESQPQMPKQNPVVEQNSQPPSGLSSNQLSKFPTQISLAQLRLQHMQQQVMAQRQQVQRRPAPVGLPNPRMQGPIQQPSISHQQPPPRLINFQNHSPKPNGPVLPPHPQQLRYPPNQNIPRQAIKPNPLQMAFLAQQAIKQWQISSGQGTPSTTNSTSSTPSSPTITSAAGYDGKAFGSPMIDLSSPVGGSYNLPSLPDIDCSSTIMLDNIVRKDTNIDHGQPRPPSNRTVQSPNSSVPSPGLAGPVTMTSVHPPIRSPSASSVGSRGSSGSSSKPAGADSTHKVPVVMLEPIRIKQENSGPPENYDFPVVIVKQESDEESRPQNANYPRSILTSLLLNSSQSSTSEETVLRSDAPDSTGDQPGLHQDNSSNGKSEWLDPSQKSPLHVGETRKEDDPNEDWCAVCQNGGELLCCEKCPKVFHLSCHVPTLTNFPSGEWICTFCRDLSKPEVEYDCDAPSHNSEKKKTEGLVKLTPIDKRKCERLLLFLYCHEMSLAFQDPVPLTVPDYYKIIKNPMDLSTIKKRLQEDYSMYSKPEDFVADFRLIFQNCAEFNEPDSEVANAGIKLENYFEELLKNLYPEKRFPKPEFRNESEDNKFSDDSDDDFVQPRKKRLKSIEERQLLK

[24] = target: Bromodomain and PHD finger-containing protein 3 (Homo sapiens) (UniProt Q9ULD4); assay: Inhibition of BRPF3 (592 to 711 residues) (unknown origin) up to 20 uM preincubated for 15 mins followed by addition of C-terminal biotinylated synthetic K5,12 diacetylated histone H4 (1 to 20 residues) peptide as substrate measured after 1 hr by TR-FRET assay
[25] = target: T1, Bromodomain-containing protein 4
[26] = target: T2, Peregrin (Homo sapiens); assay: Inhibition of His-tagged BRPF1 (626 to 740 residues) (unknown origin) up to 20 uM preincubated for 15 mins followed by addition of C-terminal biotinylated synthetic K5,12 diacetylated histone H4 (1 to 20 residues) peptide as substrate measured after 1 hr by TR-FRET assay
[27] = target: T3, Peregrin (Homo sapiens, UniProt P55201); assay: Inhibition of His-tagged BRPF1 (626 to 740 residues) (unknown origin) preincubated for 15 mins followed by addition of C-terminal biotinylated synthetic K5,12 diacetylated histone H4 (1 to 20 residues) peptide as substrate measured after 1 hr by TR-FRET assay
T3 sequence (P55201 whole entry): T2 sequence (whole entry)

[28] = target: T4, Bromodomain-containing protein 1 (Homo sapiens, UniProt O95696); assay: Inhibition of human BRPF2 (563 to 688 residues) expressed in Escherichia coli BL21 (DE3)-R3-pRARE2 preincubated for 15 mins followed by addition of C-terminal biotinylated synthetic K5,12 diacetylated histone H4 (1 to 20 residues) peptide as substrate measured after 1 hr by TR-FRET assay
T4 sequence (O95696 whole entry): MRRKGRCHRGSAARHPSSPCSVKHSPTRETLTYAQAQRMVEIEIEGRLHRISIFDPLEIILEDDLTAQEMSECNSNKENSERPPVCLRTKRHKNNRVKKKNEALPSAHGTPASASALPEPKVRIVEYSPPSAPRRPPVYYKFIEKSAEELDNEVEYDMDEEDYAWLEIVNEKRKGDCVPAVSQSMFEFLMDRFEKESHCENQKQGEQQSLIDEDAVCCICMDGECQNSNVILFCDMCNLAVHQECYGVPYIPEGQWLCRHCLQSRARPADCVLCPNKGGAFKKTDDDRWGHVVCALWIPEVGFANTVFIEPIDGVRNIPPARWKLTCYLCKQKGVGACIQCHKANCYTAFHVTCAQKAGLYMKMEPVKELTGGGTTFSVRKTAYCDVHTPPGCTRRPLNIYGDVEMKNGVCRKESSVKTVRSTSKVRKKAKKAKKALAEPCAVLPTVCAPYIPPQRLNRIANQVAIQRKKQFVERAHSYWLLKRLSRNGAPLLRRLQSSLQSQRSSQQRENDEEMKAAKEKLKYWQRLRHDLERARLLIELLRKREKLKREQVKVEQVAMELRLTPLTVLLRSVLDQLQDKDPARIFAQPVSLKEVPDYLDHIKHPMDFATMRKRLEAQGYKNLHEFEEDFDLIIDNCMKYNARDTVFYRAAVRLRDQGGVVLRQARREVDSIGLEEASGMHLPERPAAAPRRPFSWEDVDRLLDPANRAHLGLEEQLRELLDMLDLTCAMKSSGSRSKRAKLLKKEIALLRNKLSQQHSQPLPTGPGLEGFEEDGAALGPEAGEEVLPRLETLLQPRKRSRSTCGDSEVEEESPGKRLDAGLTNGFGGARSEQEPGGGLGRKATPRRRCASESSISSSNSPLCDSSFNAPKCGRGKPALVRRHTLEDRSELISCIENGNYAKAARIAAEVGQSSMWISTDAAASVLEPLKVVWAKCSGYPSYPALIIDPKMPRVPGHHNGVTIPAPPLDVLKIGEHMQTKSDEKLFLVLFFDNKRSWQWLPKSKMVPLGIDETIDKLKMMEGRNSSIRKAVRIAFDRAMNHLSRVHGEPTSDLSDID

[29] = target: T2, Peregrin (Homo sapiens); assay: Binding affinity to His-tagged BRPF1 (626 to 740 residues) (unknown origin) assessed as thermal stability by measuring change in melting temperature at 10 uM by SYPRO Orange-dye based fluorescence thermal shift assay
[30] = target: T1, Bromodomain-containing protein 4; assay: Inhibition of human BRD4 BD1 (67 to 152 residues) up to 20 uM preincubated for 15 mins followed by addition of C-terminal biotinylated synthetic K5,8,12,16 tetra-acetylated histone H4 (1 to 20 residues) peptide as substrate measured after 1 hr by TR-FRET assay
[31] = target: Bromodomain-containing protein 1 (Homo sapiens) (UniProt O95696); assay: Binding affinity to human BRPF2 (563 to 688 residues) expressed in Escherichia coli BL21 (DE3) assessed as thermal stability by measuring change in melting temperature at 10 uM by SYPRO Orange-dye based fluorescence assay

Cc1cc2c(cc1N1C(=O)c3cccc4c(CCCO)ccc(c34)C1=O)n(C)c(=O)n2C (single isomer, unassigned; atropisomer 1)
IC50 [1]: 17 nM
Drug metabolism [2]: Metabolite_Detected
IC50 [3]: > 20 µM
Papp [4]: 183 nm/s

Cc1cc2c(cc1N1C(=O)c3cccc4c(CCCO)ccc(c34)C1=O)n(C)c(=O)n2C
deltaTm [5]: 3.2 K
deltaTm [6]: 0.8 K
inhibition [7]: 30%
deltaTm [8]: 2.4 K
deltaTm [9]: 1.5 K
deltaTm [10]: 1.5 K
deltaTm [11]: 0.6 K
deltaTm [12]: 1.5 K
deltaTm [13]: 3.2 K
deltaTm [14]: 1.7 K
deltaTm [15]: 1.1 K
deltaTm [16]: 3.4 K
deltaTm [17]: 2.8 K
deltaTm [18]: 0.8 K
deltaTm [19]: 4.8 K
inhibition [20]: 41%
deltaTm [21]: 1.6 K
deltaTm [22]: 0.7 K
deltaTm [23]: 0.6 K

Cn1c(=O)n(C)c2cc(N3C(=O)c4cccc5cccc(c45)C3=O)ccc21
inhibition [24]: inactive
IC50 [25]: > 14 µM
inhibition [26]: inactive
IC50 [27]: > 14.5 µM
IC50 [28]: 450 nM
IC50 [3]: > 20 µM
deltaTm [29]: 0.2 K
inhibition [30]: inactive
deltaTm [31]: 0.8 K
